In patent US11773129B2, “Methods of preventing or treating atherosclerosis with inhibitors of specific isoenzymes of human neuraminidase” (THE GOVERNORS OF THE UNIVERSITY OF ALBERTA, priority 2017, dated 2023):
Each block holds one compound with its values, some of them ahead of it.

Legend:
Type in all cases: biochemical
NEU1 = molecular target: T1, NEU1 (Homo sapiens, UniProt Q99519); assay: IC50 inhibition assay using 4MU-NANA as the substrate, NEU1; settings: 4MU-NANA as the substrate; read-out: IC50 NEU1
T1 construct: made in house; host or cells: HEK293 (lentiviral transduction), crude lysate
Description: Two weeks after transduction cells were harvested and a crude lysate showing ˜200 nmol/h mg of sialidase activity used in experiments.
Assays were performed with duplicates for each point and IC50 was obtained by plotting the data with Graphpad™ Prism 5.0.

NEU1, NEU2, NEU3, NEU4 = assay: Isoenzyme specificity/selectivity from 4MU-NANA IC50 across the four human neuraminidases; settings: for Target: isoenzyme(s) the compound is specific for, dual (bispecific) when ratio of IC50 is about 3 or less
NEU3 = molecular target: T2, NEU3 (Homo sapiens, UniProt Q9UQ49); assay: IC50 inhibition assay using 4MU-NANA as the substrate, NEU3; set-up: MBP (N); made in house; host or cells: E. coli; settings: 4MU-NANA as the substrate; read-out: IC50 NEU3
T2 sequence (Q9UQ49 1-428): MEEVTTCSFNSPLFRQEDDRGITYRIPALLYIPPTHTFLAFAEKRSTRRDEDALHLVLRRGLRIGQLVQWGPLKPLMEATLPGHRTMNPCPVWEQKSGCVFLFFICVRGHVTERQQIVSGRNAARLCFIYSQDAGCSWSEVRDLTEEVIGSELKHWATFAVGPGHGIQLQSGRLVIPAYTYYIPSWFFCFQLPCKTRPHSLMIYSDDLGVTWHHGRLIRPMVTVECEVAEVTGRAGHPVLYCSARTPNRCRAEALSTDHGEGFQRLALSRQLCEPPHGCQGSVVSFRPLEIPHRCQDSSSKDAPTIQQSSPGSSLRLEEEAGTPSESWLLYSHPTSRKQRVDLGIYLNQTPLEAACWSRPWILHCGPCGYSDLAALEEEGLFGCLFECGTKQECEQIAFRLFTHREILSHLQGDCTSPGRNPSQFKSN

NEU4 = molecular target: T3, NEU4 (Homo sapiens, UniProt Q8WWR8); assay: IC50 inhibition assay using 4MU-NANA as the substrate, NEU4; set-up: GST; made in house; host or cells: E. coli; settings: 4MU-NANA as the substrate; read-out: IC50 NEU4
T3 sequence (Q8WWR8 1-484): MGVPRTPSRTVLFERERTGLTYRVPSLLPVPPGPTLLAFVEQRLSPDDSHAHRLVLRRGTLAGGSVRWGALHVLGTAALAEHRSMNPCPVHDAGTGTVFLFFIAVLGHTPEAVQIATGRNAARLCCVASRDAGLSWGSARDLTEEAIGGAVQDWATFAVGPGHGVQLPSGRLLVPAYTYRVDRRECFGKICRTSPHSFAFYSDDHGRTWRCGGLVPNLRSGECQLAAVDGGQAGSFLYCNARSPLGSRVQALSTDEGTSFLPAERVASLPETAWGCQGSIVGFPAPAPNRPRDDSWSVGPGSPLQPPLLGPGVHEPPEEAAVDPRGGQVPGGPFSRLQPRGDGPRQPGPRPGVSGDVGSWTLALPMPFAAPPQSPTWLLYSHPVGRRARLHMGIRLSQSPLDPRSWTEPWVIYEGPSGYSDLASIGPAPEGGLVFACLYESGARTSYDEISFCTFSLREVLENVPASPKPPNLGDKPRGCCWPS

SMILES: CC(=O)N[C@H]1[C@H]([C@H](O)[C@H](O)Cn2cc(-c3ccc(F)cc3)nn2)OC(C(=O)O)=C[C@@H]1O [7f]
IC50 (NEU1): 100 ± 40 µM
Selectivity (NEU1, NEU2, NEU3, NEU4; from 4MU-NANA IC50, for the isoenzyme(s) in column Target): 10
Target (NEU1, NEU2, NEU3, NEU4): NEU4
IC50 (NEU3): 17 ± 2 µM
IC50 (NEU4): 1.3 ± 0.2 µM

SMILES: CC(=O)N[C@H]1[C@H]([C@H](O)[C@H](O)Cn2cc(-c3ccc(C(=O)O)cc3)nn2)OC(C(=O)O)=C[C@@H]1NC(=O)NCCC(=O)O [compound 18]
IC50 (NEU1): > 500 µM
Target (NEU1, NEU2, NEU3, NEU4): NEU4
IC50 (NEU3): > 500 µM
IC50 (NEU4): 66 ± 16 µM

SMILES: CC(=O)N[C@@H]1C(O)C=C(C(=O)O)OC1C(O)C(O)Cn1cc(-c2ccc(NC(=O)c3ccccc3)cc2)nn1 (some centres unmarked) [compound 27]
IC50 (NEU1): 190 ± 70 µM
Target (NEU1, NEU2, NEU3, NEU4): NEU3/ NEU4
IC50 (NEU3): 2.9 ± 0.2 µM
IC50 (NEU4): 3.7 ± 0.4 µM

SMILES: CCC(=O)N[C@H]1[C@H]([C@H](O)[C@H](O)CO)OC(C(=O)O)=C[C@@H]1O [compound 29, 5-Propionamido-2,6-anhydro-3,5-dideoxy-D-glycero-D-galacto-non-2-enonic acid]
IC50 (NEU1): 18 ± 1 µM
Target (NEU1, NEU2, NEU3, NEU4): NEU1
IC50 (NEU3): 60 ± 7 µM
IC50 (NEU4): 87 ± 18 µM

SMILES: CCCC(=O)N[C@@H]1C(O)C=C(C(=O)O)OC1C(O)C(O)CO (some centres unmarked) [compound 30, 5-Butyramido-2,6-anhydro-3,5-dideoxy-n-glycero-n-galacto-non-2-enonic acid]
IC50 (NEU1): 8.4 ± 0.5 µM
Target (NEU1, NEU2, NEU3, NEU4): NEU1/ NEU4
IC50 (NEU3): 15 ± 2 µM
IC50 (NEU4): 8.4 ± 0.4 µM

SMILES: CCCCCCC(=O)N[C@H]1[C@H]([C@H](O)[C@H](O)CO)OC(C(=O)O)=C[C@@H]1O [compound 33, 5-Heptanamido-2,6-anhydro-3,5-dideoxy-D-glycero-D-galacto-non-2-enonic acid]
IC50 (NEU1): 2.1 ± 0.2 µM
Target (NEU1, NEU2, NEU3, NEU4): NEU1
IC50 (NEU3): 210 ± 70 µM
IC50 (NEU4): 470 ± 200 µM

SMILES: CC(C)CCC(=O)N[C@H]1[C@H]([C@H](O)[C@H](O)CO)OC(C(=O)O)=C[C@@H]1O [compound 36, 5-(4-Methylpentanamido)-2,6-anhydro-3,5-dideoxy-D-glycero-D-galacto-non-2-enonic acid]
IC50 (NEU1): 1.7 ± 0.1 µM
Target (NEU1, NEU2, NEU3, NEU4): NEU1
IC50 (NEU3): 150 ± 20 µM
IC50 (NEU4): 370 ± 160 µM

SMILES: O=C(O)C1=C[C@H](O)[C@@H](NC(=O)C2CC2)[C@H]([C@H](O)[C@H](O)CO)O1 [compound 37, 5-Cyclopropanecarboxamido-2,6-anhydro-3,5-dideoxy-D-glycero-D-galacto-non-2-enonic acid]
IC50 (NEU1): 6.9 ± 0.4 µM
Target (NEU1, NEU2, NEU3, NEU4): NEU1
IC50 (NEU3): 170 ± 40 µM
IC50 (NEU4): 150 ± 40 µM

SMILES: O=C(O)C1=C[C@H](O)[C@@H](NC(=O)C2CCC2)[C@H]([C@H](O)[C@H](O)CO)O1 [compound 38, 5-Cyclobutanecarboxamido-2,6-anhydro-3,5-dideoxy-D-glycero-D-galacto-non-2-enonic acid]
IC50 (NEU1): 12 ± 2 µM
Target (NEU1, NEU2, NEU3, NEU4): NEU1
IC50 (NEU3): 100 ± 20 µM
IC50 (NEU4): 81 ± 15 µM

SMILES: CN(C)c1ccc(-c2cn(CC(=O)N[C@@H]3C(O)C=C(C(=O)O)OC3C(O)C(O)CO)nn2)cc1 (stereo partly drawn) [compound 47, 5-(2-(4-(4-(dimethylamino)phenyl-1H-1,2,3-triazol-1-yl)acetamido))-2,3,5-trideoxy-D-glycero-D-galacto-2-nonulopyranosonic acid]
IC50 (NEU1): 110 ± 10 µM
Target (NEU1, NEU2, NEU3, NEU4): NEU1/ NEU2/ NEU3/ NEU4
IC50 (NEU3): 46 ± 7 µM
IC50 (NEU4): 36 ± 5 µM

Next, values leading:

IC50 (NEU1): 140 ± 30 µM
Target (NEU1, NEU2, NEU3, NEU4): NEU3/ NEU4
IC50 (NEU3): 3.3 ± 0.5 µM
IC50 (NEU4): 5 ± 0.9 µM
SMILES: CC(=O)N[C@H]1[C@H]([C@H](O)[C@H](O)Cn2cc(-c3ccc(C(F)(F)F)cc3)nn2)OC(C(=O)O)=C[C@@H]1O [7g]

IC50 (NEU1): 240 ± 90 µM
Target (NEU1, NEU2, NEU3, NEU4): NEU3/ NEU4
IC50 (NEU3): 1.1 ± 0.1 µM
IC50 (NEU4): 3 ± 0.3 µM
SMILES: CC(=O)N[C@@H]1C(O)C=C(C(=O)O)OC1C(O)C(O)Cn1cc(-c2ccc(C(=O)O)cc2)nn1 (some centres unmarked) [7h]

IC50 (NEU1): > 500 µM
Target (NEU1, NEU2, NEU3, NEU4): NEU3/ NEU4
IC50 (NEU3): 1 ± 0.1 µM
IC50 (NEU4): 0.97 ± 0.24 µM
SMILES: CC(=O)N[C@H]1[C@H]([C@H](O)[C@H](O)Cn2cc(-c3ccc(Oc4ccccc4)cc3)nn2)OC(C(=O)O)=C[C@@H]1O [7j]

IC50 (NEU1): > 500 µM
Target (NEU1, NEU2, NEU3, NEU4): NEU3
IC50 (NEU3): 0.61 ± 0.1 µM
IC50 (NEU4): 24 ± 2 µM
SMILES: CC(=O)N[C@@H]1C(NC(=N)N)C=C(C(=O)O)OC1C(O)C(O)Cn1cc(-c2ccc(C(=O)O)cc2)nn1 (some centres unmarked) [8a]

IC50 (NEU1): > 500 µM
Target (NEU1, NEU2, NEU3, NEU4): NEU4
IC50 (NEU3): 15 ± 1 µM
IC50 (NEU4): 1.1 ± 0.2 µM
SMILES: CC(=O)N[C@@H]1C(O)C=C(C(=O)O)OC1C(O)C(O)Cn1cc(CNC(=O)c2ccccc2)nn1 (some centres unmarked) [compound 26]

IC50 (NEU1): 5.3 ± 0.8 µM
Target (NEU1, NEU2, NEU3, NEU4): NEU1
IC50 (NEU3): > 500 µM
IC50 (NEU4): 71 ± 17 µM
SMILES: CC(C)C(=O)N[C@H]1[C@H]([C@H](O)[C@H](O)CO)OC(C(=O)O)=C[C@@H]1O [compound 34, 5-isobutyramido-2,6-anhydro-3,5-dideoxy-D-glycero-D-galacto-non-2-enonic acid]

IC50 (NEU1): 32 ± 5 µM
Target (NEU1, NEU2, NEU3, NEU4): NEU1/ NEU2
IC50 (NEU3): > 500 µM
IC50 (NEU4): > 500 µM
SMILES: CC(C)CC(=O)N[C@H]1[C@H]([C@H](O)[C@H](O)CO)OC(C(=O)O)=C[C@@H]1O [compound 35, 5-(3-methylbutanamido)-2,6-anhydro-3,5-dideoxy-D-glycero-D-galacto-non-2-enonic acid]

IC50 (NEU1): 11 ± 1 µM
Target (NEU1, NEU2, NEU3, NEU4): NEU1
IC50 (NEU3): 480 ± 100 µM
IC50 (NEU4): > 500 µM
SMILES: O=C(O)C1=C[C@H](O)[C@@H](NC(=O)c2ccccc2)[C@H]([C@H](O)[C@H](O)CO)O1 [compound 39, 5-Benzamido-2,6-anhydro-3,5-dideoxy-D-glycero-D-galacto-non-2-enonic acid]

IC50 (NEU1): > 500 µM
Target (NEU1, NEU2, NEU3, NEU4): NEU2
IC50 (NEU3): > 500 µM
IC50 (NEU4): 300 ± 60 µM
SMILES: O=C(Cn1cc(-c2ccc(C(F)(F)F)cc2)nn1)N[C@@H]1C(O)C=C(C(=O)O)OC1C(O)C(O)CO (some centres unmarked) [compound 41]

IC50 (NEU1): > 500 µM
Target (NEU1, NEU2, NEU3, NEU4): NEU2
IC50 (NEU3): > 500 µM
IC50 (NEU4): 400 ± 160 µM
SMILES: O=C(Cn1cc(-c2ccc(C(=O)O)cc2)nn1)N[C@@H]1C(O)C=C(C(=O)O)OC1C(O)C(O)CO (some centres unmarked) [compound 43]

IC50 (NEU1): > 500 µM
Target (NEU1, NEU2, NEU3, NEU4): NEU2
IC50 (NEU3): > 500 µM
IC50 (NEU4): 87 ± 14 µM
SMILES: COc1ccc(-c2cn(CC(=O)N[C@@H]3C(O)C=C(C(=O)O)OC3C(O)C(O)CO)nn2)cc1 (some centres unmarked) [compound 44]

IC50 (NEU1): > 500 µM
Target (NEU1, NEU2, NEU3, NEU4): NEU2
IC50 (NEU3): 240 ± 40 µM
IC50 (NEU4): 100 ± 20 µM
SMILES: O=C(Cn1cc(-c2ccc(F)cc2)nn1)N[C@@H]1C(O)C=C(C(=O)O)OC1C(O)C(O)CO (some centres unmarked) [compound 45]

IC50 (NEU1): > 500 µM
Target (NEU1, NEU2, NEU3, NEU4): NEU2
IC50 (NEU3): > 500 µM
IC50 (NEU4): > 500 µM
SMILES: CC(=O)Nc1ccc(-c2cn(CC(=O)N[C@@H]3C(O)C=C(C(=O)O)OC3C(O)C(O)CO)nn2)cc1 (some centres unmarked) [compound 48]

IC50 (NEU1): 9.9 ± 1.3 µM
Target (NEU1, NEU2, NEU3, NEU4): NEU1
IC50 (NEU3): 39 ± 8 µM
IC50 (NEU4): 310 ± 30 µM
SMILES: CCCCCCC(=O)NCC(O)C(O)C1OC(C(=O)O)=CC(O)[C@H]1NC(C)=O (stereo partly drawn) [compound 52, 5-Acetamido-9-heptanamido-2,6-anhydro-3,5-dideoxy-D-glycero-D-galacto-non-2-enonic acid]

IC50 (NEU1): 3.2 ± 0.3 µM
Target (NEU1, NEU2, NEU3, NEU4): NEU1
IC50 (NEU3): 54 ± 6 µM
IC50 (NEU4): 150 ± 50 µM
SMILES: CC(=O)N[C@@H]1C(O)C=C(C(=O)O)OC1C(O)C(O)CNC(=O)CCC(C)C (stereo partly drawn) [compound 55, 5-Acetamido-9-(4-methylpentanamido)-2,6-anhydro-3,5-dideoxy-D-glycero-D-galacto-non-2-enonic acid]
